Data as given in patent US20220411525A1, “BCMA AS A TARGET FOR T CELL REDIRECTING ANTIBODIES IN B CELL LYMPHOMAS” (Janssen Pharmaceutica NV, priority 2021, published 2022).

How the values were obtained:
[1] = system: B cell malignancy cell lines; assay: Viability of cell lines under γ-secretase inhibition; format: cell-based; conditions: 100nM γ-secretase inhibitor, 24-48 h
Method: Since BCMA is known to be cleaved off by γ-secretase, it was evaluated whether inhibition of this enzyme would lead to enhanced BCMA levels on these B cell lines. To assess this, the different B cell malignancy lines were incubated for 24-48 h with 100nM γ-secretase inhibitor (Ly411575) and BCMA fold increase was compared to unstimulated cells. Viability of the different cell lines was not affected by γ-secretase inhibition (FIG. 7A). […] Besides the cell lines which already had high basal levels of BCMA (U266, RPMI-8226, MWCL1 and BCWM.1) also cell lines which had low basal expression of BCMA, such as JeKo-1 and OCI-Ly7 were able to upregulate BCMA after γ-secretase inhibition (FIG. 1B). […] This was studied by determination of soluble BCMA (sBCMA) levels in supernatants of B cell malignancy cell lines, which were cultured for 24 or 48h in the absence or presence of γ-secretase inhibitor. Indeed, sBCMA levels were detectable upon culture of different selected cell lines (except for Jurkat), and increased upon longer culture times (FIG. 1C).

[2] = system: B cell malignancy cell lines; assay: BCMA mRNA relative to GAPDH by qPCR in cell lines; format: cell-based; conditions: 100 nM, 24 h, prior and after γ-secretase inhibition
Method: To evaluate whether other malignancies besides multiple myeloma (MM) can potentially be targeted by BCMA directed immunotherapy, B cell malignancy cell lines were assessed for BCMA expression by flow cytometry. […] Per FIG. 1A, B cell malignancy cell lines were cultured and basal levels of BCMA were assessed by flow cytometry and compared to isotype controls. (n=3-8). Dotted line indicates no increase compared to isotype control. In accordance with FIG. 1B, cell lines were treated for 24-48h with 100nM γ-secretase inhibitor or with medium control and BCMA was assessed by flow cytometry. Values are represented as fold increase compared to 0 nM γ-secretase inhibitor. (n=3-12) Dotted line indicates no increase compared to 0 nM γ-secretase inhibitor. […] The P value was calculated by paired t test of Wilcoxon test (FIG. 1A-1B) or simple linear regression (FIG. 1E). […]
Since BCMA is known to be cleaved off by γ-secretase, it was evaluated whether inhibition of this enzyme would lead to enhanced BCMA levels on these B cell lines. […]
BCMA characterization by flow cytometry and quantitative polymerase chain reaction. […] After 24 or 48 h BCMA was detected by flow cytometry as described above. Relative expression was calculated compared to isotype controls. […]

C[C@H](NC(=O)[C@@H](O)c1cc(F)cc(F)c1)C(=O)N[C@@H]1C(=O)N(C)c2ccccc2-c2ccccc21 [Ly411575]
Viability of the different cell lines [1]: not affected | BCMA mRNA levels [2]: remained equal
